The record followed here is patent US12227743B2, “Pharmaceutical composition for treatment of diseases associated with upregulated periostin expression or periostin splice variant switching” (Osaka University, priority 2018, dated 2025).

Data set [1] concerns human breast cancer cell line BT549. Put plainly: ATP assay (CellTiter-Glo, ATP production) in transfected BT549 cells with or without paclitaxel. Format: cell-based. As to conditions: 72 hours. On the procedure:
(§1) Periostin-highly-expressing human breast cancer cell line BT549 was cultured in RPMI 1640 with 10% FBS and 1% penicillin/streptomycin. The BT549 cells are a triple-negative breast cancer cell line, which is negative for estrogen receptor, progesterone receptor, and human epidermal growth factor receptor 2 (HER2).
(§2) The BT549 cells were transfected with the human exon 17-skipping antisense oligonucleotide or the human exon 21-skipping antisense oligonucleotide as described in Example 1. The cells were subsequently seeded in an amount of 5×10^3 cells/well on a 96-well plate. Similarly, the BT549 cells were transfected with the control antisense oligonucleotide and seeded on a 96-well plate as the control group. On the day after seeding, paclitaxel was added at a final concentration of 10 nM to the wells. After 72 hours of culture, cell proliferation (number of viable cells) and ATP-producing capacity (ATP quantification) were evaluated. The number of viable cells was measured using the CellTiter 96 AQueous One Solution Cell Proliferation Assay (trade name, Promega, #G3582) (MTS assay). The amount of ATP was measured using the CellTiter-Glo Luminescent Cell Viability Assay (trade name, Promega, #G7570) (ATP assay). The Tukey-Kramer test was used for intergroup comparison.
Background: In ATP-based viability assays light output follows the ATP content of the culture.

Data set [2] has the same test system. The data set is described as follows: MTS assay (number of viable cells) in transfected BT549 cells with or without paclitaxel. Format: cell-based. As to conditions: 72 hours. The procedure: as §1, §2
(In general: Tetrazolium assays rely on reduction of a dye to a coloured formazan, in cell work by metabolically active cells.)

Data set [3] relates to downstream molecules of TGF-β-induced signaling. Put plainly: Quantitative PCR of downstream molecules of TGF-β-induced signaling in hRPTEC transfected with antisense oligonucleotide. The format is cell-based, human. The following applies: vs TGF-β (+) Control AS, FIG. 15. On the procedure: Human renal proximal tubular epithelial cells (hRPTEC, ATCC No. PCS-400-010) were cultured in a renal epithelial cell basal medium (REBM, Cambrex Bio Science Inc.) with 10% fetal bovine serum (FBS) and 1% penicillin/streptomycin. The cells were transfected with the human exon 17-skipping antisense oligonucleotide (Pn exon 17 AS) or the control antisense oligonucleotide (Control AS) as described in Example 1. At 24 hours after transfection, the medium was replaced by a serum-free medium. At 24 hours thereafter, human TGF-β1 (PeproTech) was added to the medium, and culture was continued for additional 24 hours. After cell culture, total RNA was extracted from the cells and subjected to cDNA synthesis (see Reference Example 1). The resulting cDNA was subjected to quantitative PCR using the primers shown below to measure the expression level of the splice variant Pn1 (containing exons 17 and 21, see FIG. 1) (n=3 per group) and the mRNA expression levels of the downstream molecules of TGF-β-induced signaling (αSMA, Snail 1, TNFα, CTGF, vimentin) (n=4 per group). Statistical analysis was performed by analysis of variance and Tukey-Kramer adjustment using the JMP statistical software package.

The test system of data set [4] is Luciferase-expressing mouse breast cancer (4T1-Luc) cells. Put plainly: Pulmonary metastasis (lung luciferase activity) in nude mice after tail vein injection of transfected 4T1-Luc cells. The format is in vivo. The following applies: 5×10^5 transfected 4T1-Luc cells via tail vein, 5 days after injection, vs control antisense, FIG. 16. The procedure:
Luciferase-expressing mouse breast cancer (4T1-Luc) cells were cultured in DMEM with 10% FBS and 1% penicillin/streptomycin. A morpholino antisense oligonucleotide designed to induce skipping of exon 17 of a mouse periostin gene was purchased from Funakoshi Co., Ltd. The nucleotide sequence of the antisense oligonucleotide is as follows.
The mouse exon 17-skipping antisense oligonucleotide targets the region of positions 21118 to 21142 of the mouse periostin gene represented by SEQ ID NO: 2.
The 4T1-Luc cells were transfected with the mouse exon 17-skipping antisense oligonucleotide or the control antisense oligonucleotide (SEQ ID NO: 6) as described in Example 1. After 2 days of culture, the cells were detached, and cell suspension was prepared. The cell suspension (containing 5×10^5 4T1-Luc cells per mouse) was injected via the tail vein to nude mice (BALB/c-nu, female, 8 to 10 weeks old) (n=3 per group). At 5 days after injection, the lung was excised from each mouse under anesthesia and homogenized. The homogenate was subjected to the measurement of luciferase activity using the Dual-Luciferase Reporter Assay System (Promega, #E1910). The Mann Whitney test (MWU) was used for comparison between the two groups.

Where [5] appears, read: BT549, no paclitaxel, vs control antisense transfected cells, FIG. 18A.
[6] abbreviates: BT549, paclitaxel 10 nM, vs control antisense transfected cells, FIG. 18B.
Where [7] appears, read: BT549, paclitaxel 10 nM, vs control antisense transfected cells, FIG. 17B.

For the substance “exon 21-skipping antisense oligonucleotide: Morpholino antisense oligonucleotide 5′-TTGTTGTCCTTTTACTAACCTCCCT-3′ designed to induce skipping of exon 21 of a human periostin gene (all phosphorodiamidate morpholino (PMO))”, the ATP production result in data set [1] (setting [5]) was “significant reduction”; in data set [1] (BT549, no paclitaxel, vs exon 17-skipping antisense transfected cells, FIG. 18A), “significant reduction”; in data set [1] (setting [6]) it was “significant reduction”; in data set [1] (BT549, paclitaxel 10 nM, vs exon 17-skipping antisense transfected cells, FIG. 18B), “significant reduction”. Also, the “cell proliferation (number of viable cells, MTS)” value was “significant reduction” in data set [2] (BT549, no paclitaxel, vs exon 17-skipping and control antisense transfected cells, FIG. 17A); “significant reduction” in data set [2] (setting [7]).

For the substance “exon 17-skipping antisense oligonucleotide: Morpholino antisense oligonucleotide 5′-CCATGTATAACATTGATTTTTACCTTCAGT-3′ designed to induce skipping of exon 17 of a human periostin gene (all phosphorodiamidate morpholino (PMO))”, the ATP production result in data set [1] (setting [5]) is reported as “significant reduction”. For the same substance, the ATP production result in data set [1] (setting [6]) is reported as “significant reduction”. Further, in data set [3], the “CTGF mRNA expression, TGF-β induction” value is “significantly suppressed”; the “Snail 1 mRNA expression, TGF-β induction” value is given as “significantly suppressed”; the “TNFα mRNA expression, TGF-β induction” value is on record as “significantly suppressed”; the “Vimentin mRNA expression, TGF-β induction” value was “significantly suppressed”. In addition, the “αSMA mRNA expression, TGF-β induction” value in data set [3] is “significantly suppressed”. The “cell proliferation (number of viable cells, MTS)” value in data set [2] (setting [7]) is recorded as “significant reduction”.

Turning to “mouse exon 17-skipping antisense oligonucleotide: Morpholino antisense oligonucleotide 5′-TGCTGAAAACATAGAAAGTGGAGCA-3′ designed to induce skipping of exon 17 of a mouse periostin gene (all phosphorodiamidate morpholino (PMO))”, the “luciferase activity in lung homogenate (pulmonary metastasis)” value in data set [4] is on record as “very low”.
